Converted amounts (≈) assume the structure as drawn. The source made the active and inactive calls. The calls are words filed in the database; no cut-off is given here.
How the values were obtained:
[1] = test system: Staphylococcus aureus; assay: Antibacterial activity against gram-positive bacteria Staphylococcus aureus ATCC 9144; No effect; type: functional, organism-based
[2] = test system: Proteus mirabilis; assay: Antibacterial activity against gram-negative bacteria Proteus mirabilis CIP 1031811; No effect; type: functional, organism-based
[3] = test system: Streptococcus pyogenes; assay: Antibacterial activity against gram-positive bacteria Streptococcus pyogenes ATCC 19165; No effect; type: functional, organism-based
[4] = test system: Salmonella enterica; assay: Antibacterial activity against gram-negative bacteria S. choleraesuis; No effect; type: functional, organism-based
[5] = test system: Salmonella typhimurium; assay: Antibacterial activity against gram-negative bacteria Salmonella ser. Typhimurium; No effect; type: functional, organism-based; details: Salmonella enterica subsp. enterica serovar Typhimurium
[6] = test system: Pseudomonas aeruginosa; assay: Antibacterial activity against gram-negative bacteria Pseudomonas aeruginosa ATCC 27853; No effect; type: functional, organism-based
[7] = test system: Listeria monocytogenes; assay: Antibacterial activity against gram-positive bacteria Listeria monocytogenes CIP 82110T; No effect; type: functional, organism-based
[8] = test system: Enterococcus faecalis; assay: Antibacterial activity against gram-positive bacteria Enterococcus faecalis ATCC 29212; No effect; type: functional, organism-based
[9] = test system: Escherichia coli; assay: Antibacterial activity against gram-negative bacteria Escherichia coli ATCC 25922; No effect; type: functional, organism-based
[10] = test system: Klebsiella pneumoniae; assay: Antibacterial activity against gram-negative bacteria K. pneumoniae; No effect; type: functional, organism-based
[11] = Ratio of MFC99/MIC for antifungal activity against Candida glabrata DSM 6425 strain was determined; type: functional
[12] = test system: Candida albicans; assay: Minimum fungicidal concentration required for antifungal activity against Candida albicans ATCC 10231 strain; type: functional
[13] = test system: Candida tropicalis; assay: Minimum inhibitory concentration required for antifungal activity against Candida tropicalis DSM 1346 strain; type: functional
[14] = test system: Nakaseomyces glabratus; assay: Minimum inhibitory concentration required for antifungal activity against Candida glabrata DSM 6425 strain; type: functional
[15] = test system: Cryptococcus neoformans; assay: Minimum fungicidal concentration required for antifungal activity against Cryptococcus neoformans DSM 70219 strain; type: functional
[16] = test system: Cryptococcus neoformans; assay: Minimum inhibitory concentration required for antifungal activity against Cryptococcus neoformans DSM 70219 strain; type: functional
[17] = Ratio of MFC99/MIC for antifungal activity against Candida tropicalis DSM 1346 strain was determined; type: functional
[18] = test system: Pichia kudriavzevii; assay: Minimum fungicidal concentration required for antifungal activity against Issatchenkia orientalis DSM 6128 strain; type: functional
[19] = Ratio of MFC99/MIC for antifungal activity against Cryptococcus neoformans DSM 70219 strain was determined; type: functional
[20] = test system: Pichia kudriavzevii; assay: Minimum inhibitory concentration required for antifungal activity against Issatchenkia orientalis DSM 6128 strain; type: functional
[21] = test system: Candida albicans; assay: Minimum inhibitory concentration required for antifungal activity against Candida albicans ATCC 10231 strain; type: functional
[22] = test system: Candida tropicalis; assay: Minimum fungicidal concentration required for antifungal activity against Candida tropicalis DSM 1346 strain; type: functional
[23] = Ratio of MFC99/MIC for antifungal activity against Issatchenkia orientalis DSM 6128 strain was determined; type: functional
[24] = Ratio of MFC99/MIC for antifungal activity against Candida albicans ATCC 10231 strain was determined; type: functional
[25] = test system: Nakaseomyces glabratus; assay: Minimum fungicidal concentration required for antifungal activity against Candida glabrata DSM 6425 strain; type: functional

Compound | Activity [1] | Activity [2] | Activity [3] | Activity [4] | Activity [5] | Activity [6] | Activity [7] | Activity [8] | Activity [9] | Activity [10] | Ratio [11] | MFC99 [12] | MIC [13] | MIC [14] | MFC99 [15] | MIC [16] | MFC99 [18] | Ratio [19] | MIC [20] | MIC [21] | other results
CCOc1nc(C#N)nc2ccccc12 | inactive | inactive | inactive | inactive | inactive | inactive | inactive | inactive | inactive | inactive | – | – | – | – | – | – | – | – | – | – | –
Clc1nss/c1=N\c1ccccc1 | – | – | – | – | – | – | – | – | – | – | 1 | 16 µg/mL (≈ 70 µM) | 16 µg/mL (≈ 70 µM) | 16 µg/mL (≈ 70 µM) | 8 µg/mL (≈ 35 µM) | 8 µg/mL (≈ 35 µM) | 16 µg/mL (≈ 70 µM) | 1 | 16 µg/mL (≈ 70 µM) | 16 µg/mL (≈ 70 µM) | Ratio [17]: 1; MFC99 [22]: 16 µg/mL (≈ 70 µM); Ratio [23]: 1; Ratio [24]: 1; MFC99 [25]: 16 µg/mL (≈ 70 µM)
COc1cc2nc(C#N)nc(OC)c2cc1OC | inactive | inactive | inactive | inactive | inactive | inactive | inactive | inactive | inactive | inactive | – | – | – | – | – | – | – | – | – | – | –
COc1ccc(/N=c2\ssnc2Cl)cc1OC | – | – | – | – | – | – | – | – | – | – | 1 | 16 µg/mL (≈ 55.4 µM) | 16 µg/mL (≈ 55.4 µM) | 16 µg/mL (≈ 55.4 µM) | 32 µg/mL (≈ 111 µM) | 16 µg/mL (≈ 55.4 µM) | 32 µg/mL (≈ 111 µM) | 2 | 16 µg/mL (≈ 55.4 µM) | 16 µg/mL (≈ 55.4 µM) | Ratio [17]: 2; MFC99 [22]: 32 µg/mL (≈ 111 µM); Ratio [23]: 2; Ratio [24]: 1; MFC99 [25]: 16 µg/mL (≈ 55.4 µM)
CCCCOc1nc(C#N)nc2cc(OC)c(OC)cc12 | inactive | inactive | inactive | inactive | inactive | inactive | inactive | inactive | inactive | inactive | – | – | – | – | – | – | – | – | – | – | –
COc1cc2nc(C#N)nc(OC(C)C)c2cc1OC | inactive | inactive | inactive | inactive | inactive | inactive | inactive | inactive | inactive | inactive | – | – | – | – | – | – | – | – | – | – | –
N#Cc1nc2ccccc2c(=O)s1 | inactive | inactive | inactive | inactive | inactive | inactive | inactive | inactive | inactive | inactive | – | – | – | – | – | – | – | – | – | – | –
N#Cc1nc2cc(Cl)ccc2c(=O)s1 | inactive | inactive | inactive | inactive | inactive | inactive | inactive | inactive | inactive | inactive | – | – | – | – | – | – | – | – | – | – | –
C[C@@H]1[C@H](O)[C@@H](C)/C=C/C=C/C=C/C=C/C=C/C=C/C=C/[C@H](O[C@@H]2O[C@H](C)[C@@H](O)[C@H](N)[C@@H]2O)C[C@@H]2O[C@](O)(C[C@@H](O)C[C@@H](O)[C@H](O)CC[C@@H](O)C[C@@H](O)CC(=O)O[C@H]1C)C[C@H](O)[C@H]2C(=O)O [AMPHOTERICIN B] | – | – | – | – | – | – | – | – | – | – | 2 | 0.5 µg/mL (≈ 0.541 µM) | 1 µg/mL (≈ 1.08 µM) | 1 µg/mL (≈ 1.08 µM) | 0.5 µg/mL (≈ 0.541 µM) | 0.13 µg/mL (≈ 0.141 µM) | 1 µg/mL (≈ 1.08 µM) | 3.8 | 0.5 µg/mL (≈ 0.541 µM) | 0.25 µg/mL (≈ 0.271 µM) | Ratio [17]: 2; MFC99 [22]: 2 µg/mL (≈ 2.16 µM); Ratio [23]: 2; Ratio [24]: 2; MFC99 [25]: 2 µg/mL (≈ 2.16 µM)
N#Cc1nc2ccccc2c(=O)o1 | inactive | inactive | inactive | inactive | inactive | inactive | inactive | inactive | inactive | inactive | – | – | – | – | – | – | – | – | – | – | –
N#Cc1nc2cc(Cl)ccc2c(=O)o1 | inactive | inactive | inactive | inactive | inactive | inactive | inactive | inactive | inactive | inactive | – | – | – | – | – | – | – | – | – | – | –
COc1ccc(/N=c2\ssnc2Cl)cc1 | – | – | – | – | – | – | – | – | – | – | 1 | 16 µg/mL (≈ 61.8 µM) | 16 µg/mL (≈ 61.8 µM) | 16 µg/mL (≈ 61.8 µM) | 8 µg/mL (≈ 30.9 µM) | 8 µg/mL (≈ 30.9 µM) | 16 µg/mL (≈ 61.8 µM) | 1 | 16 µg/mL (≈ 61.8 µM) | 16 µg/mL (≈ 61.8 µM) | Ratio [17]: 1; MFC99 [22]: 16 µg/mL (≈ 61.8 µM); Ratio [23]: 1; Ratio [24]: 1; MFC99 [25]: 16 µg/mL (≈ 61.8 µM)
CCOc1nc(C#N)nc2cc(OC)c(OC)cc12 | inactive | inactive | inactive | inactive | inactive | inactive | inactive | inactive | inactive | inactive | – | – | – | – | – | – | – | – | – | – | –
CCSc1nc(C#N)nc2cc(OC)c(OC)cc12 | inactive | inactive | inactive | inactive | inactive | inactive | inactive | inactive | inactive | inactive | – | – | – | – | – | – | – | – | – | – | –
COc1cc2nc(C#N)sc(=O)c2cc1OC | inactive | inactive | inactive | inactive | inactive | inactive | inactive | inactive | inactive | inactive | – | – | – | – | – | – | – | – | – | – | –
COC(=O)c1cc(OC)c(OC)cc1/N=c1\ssnc1Cl | – | – | – | – | – | – | – | – | – | – | 3 | 48 µg/mL (≈ 138 µM) | 48 µg/mL (≈ 138 µM) | 16 µg/mL (≈ 46.1 µM) | 48 µg/mL (≈ 138 µM) | 32 µg/mL (≈ 92.3 µM) | 48 µg/mL (≈ 138 µM) | 1.5 | 32 µg/mL (≈ 92.3 µM) | 32 µg/mL (≈ 92.3 µM) | MFC99 [22]: >48 µg/mL; Ratio [23]: 1.5; Ratio [24]: 1.5; MFC99 [25]: 48 µg/mL (≈ 138 µM)
COc1cc(C#N)c(/N=c2\ssnc2Cl)cc1OC | – | – | – | – | – | – | – | – | – | – | 1.5 | 32 µg/mL (≈ 102 µM) | 48 µg/mL (≈ 153 µM) | 32 µg/mL (≈ 102 µM) | 32 µg/mL (≈ 102 µM) | 32 µg/mL (≈ 102 µM) | 48 µg/mL (≈ 153 µM) | 1 | 32 µg/mL (≈ 102 µM) | 32 µg/mL (≈ 102 µM) | MFC99 [22]: >48 µg/mL; Ratio [23]: 1.5; Ratio [24]: 1; MFC99 [25]: 48 µg/mL (≈ 153 µM)
Nc1nc(=O)[nH]cc1F [FLUCYTOSINE] | – | – | – | – | – | – | – | – | – | – | 5 | 4 µg/mL (≈ 31 µM) | 0.1 µg/mL (≈ 0.775 µM) | 0.05 µg/mL (≈ 0.387 µM) | >128 µg/mL | 2 µg/mL (≈ 15.5 µM) | 64 µg/mL (≈ 496 µM) | >64 | 16 µg/mL (≈ 124 µM) | 0.13 µg/mL (≈ 1.01 µM) | Ratio [17]: 5; MFC99 [22]: 0.25 µg/mL (≈ 1.94 µM); Ratio [23]: 4; MFC99 [25]: 0.25 µg/mL (≈ 1.94 µM)
Clc1nss/c1=N\c1ccc2c(c1)OCCO2 | – | – | – | – | – | – | – | – | – | – | 3 | 48 µg/mL (≈ 167 µM) | 48 µg/mL (≈ 167 µM) | 16 µg/mL (≈ 55.8 µM) | 16 µg/mL (≈ 55.8 µM) | 16 µg/mL (≈ 55.8 µM) | >48 µg/mL | 1 | 48 µg/mL (≈ 167 µM) | 32 µg/mL (≈ 112 µM) | MFC99 [22]: >48 µg/mL; Ratio [24]: 1.5; MFC99 [25]: 48 µg/mL (≈ 167 µM)
COc1nc(C#N)nc2ccccc12 | inactive | inactive | inactive | inactive | inactive | inactive | inactive | inactive | inactive | inactive | – | – | – | – | – | – | – | – | – | – | –
COc1cc2nc(C#N)oc(=O)c2cc1OC | inactive | inactive | inactive | inactive | inactive | inactive | inactive | inactive | inactive | inactive | – | – | – | – | – | – | – | – | – | – | –
